Experimental data from ChEMBL document CHEMBL3885861, “Open TG-GATES”.

Species: Rattus norvegicus
Assay: Open TG-GATES - Regimen: Single
Type: toxicity, organism-based, Sprague-Dawley
Set-up: regimen Single, gender Male, age 6 weeks
Conditions: in vivo, po, 50 mg/kg, route gavage, dose level Middle; for APTT / Bas / Eos / Fbg / Hb / Ht / Lym / MCH / MCHC / MCV / Mono / Neu / PT / Plat / RBC / Ret / WBC: tissue Blood; for KIDNEY_L / KIDNEY_R / KIDNEY_TOTAL: tissue Kidney; for LIVER: tissue Liver; for A/G / ALP / ALT / AST / BUN / CRE / Ca / Cl / DBIL / GLC / IP / K / LDH / Na / PL / RALB / TBIL / TC / TG / TP / gamma-GTP: tissue Plasma

## O=c1ccc2ccccc2o1 [COUMARIN]
3 h
  TERMINAL_BW: 184.1 g
  APTT: 16.3 s
  Bas: 0%
  Eos: 0.6%
  Fbg: 198 mg/dL
  Hb: 13.4 g/dL
  Ht: 40.4%
  Lym: 81.4%
  MCH: 21.9 pg
  MCHC: 33.2%
  MCV: 65.9 fL
  Mono: 4%
  Neu: 14.2%
  PT: 12.7 s
  Plat: 114.8 x10_4/uL
  RBC: 613.6 x10_4/ul
  Ret: 9.3%
  WBC: 104.2 x10_2/uL
  KIDNEY_L: 0.9 g
  KIDNEY_R: 0.9 g
  KIDNEY_TOTAL: 1.7 g
  LIVER: 8.1 g
  A/G: 2.3
  ALP: 989.4 IU/L
  ALT: 39.4 IU/L
  AST: 68 IU/L
  BUN: 12 mg/dL
  CRE: 0.5 mg/dL
  Ca: 10.7 mg/dL
  Cl: 103.2 meq/L
  DBIL: 0.032 mg/dL
  GLC: 191.4 mg/dL
  IP: 10.4 mg/dL
  K: 4.7 meq/L
  LDH: 74.4 IU/L
  Na: 138 meq/L
  PL: 141 mg/dL
  RALB: 3.8 g/dL
  TBIL: 0.3 mg/dL
  TC: 76.4 mg/dL
  TG: 49.8 mg/dL
  TP: 5.5 g/dL
  gamma-GTP: 1 IU/L
6 h
  TERMINAL_BW: 180.4 g
  APTT: 16.5 s
  Bas: 0%
  Eos: 0.8%
  Fbg: 210.2 mg/dL
  Hb: 13.5 g/dL
  Ht: 40.4%
  Lym: 79.8%
  MCH: 21.7 pg
  MCHC: 33.3%
  MCV: 65 fL
  Mono: 5.8%
  Neu: 13.8%
  PT: 12.8 s
  Plat: 104.8 x10_4/uL
  RBC: 620.8 x10_4/ul
  Ret: 9.7%
  WBC: 103 x10_2/uL
  KIDNEY_L: 0.8 g
  KIDNEY_R: 0.9 g
  KIDNEY_TOTAL: 1.7 g
  LIVER: 7.7 g
  A/G: 2.1
  ALP: 1018 IU/L
  ALT: 37.2 IU/L
  AST: 70 IU/L
  BUN: 11.4 mg/dL
  CRE: 0.5 mg/dL
  Ca: 10.4 mg/dL
  Cl: 106 meq/L
  DBIL: 0.004 mg/dL
  GLC: 183 mg/dL
  IP: 10.2 mg/dL
  K: 5 meq/L
  LDH: 98.6 IU/L
  Na: 138.4 meq/L
  PL: 155.6 mg/dL
  RALB: 3.7 g/dL
  TBIL: 0.3 mg/dL
  TC: 89 mg/dL
  TG: 62.4 mg/dL
  TP: 5.6 g/dL
  gamma-GTP: 1.4 IU/L
9 h
  TERMINAL_BW: 175.7 g
  APTT: 16.7 s
  Bas: 0%
  Eos: 0.6%
  Fbg: 186.4 mg/dL
  Hb: 13.3 g/dL
  Ht: 40.2%
  Lym: 77.6%
  MCH: 22.1 pg
  MCHC: 33.2%
  MCV: 66.6 fL
  Mono: 6.2%
  Neu: 15.6%
  PT: 13 s
  Plat: 102.3 x10_4/uL
  RBC: 606 x10_4/ul
  Ret: 9.6%
  WBC: 95.4 x10_2/uL
  KIDNEY_L: 0.8 g
  KIDNEY_R: 0.8 g
  KIDNEY_TOTAL: 1.7 g
  LIVER: 7.2 g
  A/G: 2.1
  ALP: 1020.8 IU/L
  ALT: 38.6 IU/L
  AST: 74.2 IU/L
  BUN: 11.4 mg/dL
  CRE: 0.5 mg/dL
  Ca: 11.1 mg/dL
  Cl: 106 meq/L
  DBIL: 0.052 mg/dL
  GLC: 189.6 mg/dL
  IP: 10.7 mg/dL
  K: 5.1 meq/L
  LDH: 104.6 IU/L
  Na: 139 meq/L
  PL: 141.4 mg/dL
  RALB: 3.7 g/dL
  TBIL: 0.3 mg/dL
  TC: 79.4 mg/dL
  TG: 63 mg/dL
  TP: 5.5 g/dL
  gamma-GTP: 1 IU/L
24 h
  TERMINAL_BW: 189.1 g
  APTT: 15.5 s
  Bas: 0%
  Eos: 1.6%
  Fbg: 192 mg/dL
  Hb: 13.4 g/dL
  Ht: 40.2%
  Lym: 76.4%
  MCH: 22 pg
  MCHC: 33.4%
  MCV: 66 fL
  Mono: 11.4%
  Neu: 11.2%
  PT: 12.4 s
  Plat: 110.8 x10_4/uL
  RBC: 609 x10_4/ul
  Ret: 8.4%
  WBC: 100 x10_2/uL
  KIDNEY_L: 0.9 g
  KIDNEY_R: 0.9 g
  KIDNEY_TOTAL: 1.8 g
  LIVER: 9.4 g
  A/G: 2.3
  ALP: 978.2 IU/L
  ALT: 48 IU/L
  AST: 74.6 IU/L
  BUN: 15 mg/dL
  CRE: 0.6 mg/dL
  Ca: 10.9 mg/dL
  Cl: 105.8 meq/L
  DBIL: 0.012 mg/dL
  GLC: 186.8 mg/dL
  IP: 8 mg/dL
  K: 5.1 meq/L
  LDH: 113 IU/L
  Na: 138.2 meq/L
  PL: 140.2 mg/dL
  RALB: 3.8 g/dL
  TBIL: 0.3 mg/dL
  TC: 77 mg/dL
  TG: 66.6 mg/dL
  TP: 5.5 g/dL
  gamma-GTP: 1.2 IU/L
